# Assays:
# [1] = NCS‐382–diclofenac interaction study (inhibition of NCS‐382 glucuronidation); conditions: mouse
# Experimental: In this study, mice (n = 3–4 per group) were assigned (balanced for weight and gender) to one of three treatments and collected at one of three time points (0.5, 1, or 2 h).
# aldh5a1^−/− mice = system: aldh5a1^−/− mice; parameters: method as in Gupta et al. 2002; conditions: ref Gupta et al. 2002; cited from earlier work
# rat [2] = system: rat; parameters: method as in Pedraza et al., 2009; conditions: 10 mg/kg i.p., ref Pedraza et al., 2009; cited from earlier work
# mouse = system: mouse; parameters: method as in Martellotta et al., 1998; conditions: 12.5 mg/kg i.p., ref Martellotta et al., 1998; cited from earlier work
# rat [3] = system: rat; parameters: method as in Schmidt-Mutter et al., 1998; conditions: 300 mg/kg i.p., ref Schmidt-Mutter et al., 1998; cited from earlier work
# rat [4] = system: rat; parameters: method as in Hicks et al., 2004; conditions: 50 mg/kg i.v., ref Hicks et al., 2004; cited from earlier work
# rat [5] = system: rat; parameters: method as in Baker et al., 2008; conditions: rat, 25, 50, 100 mg/kg i.g.; ref Baker et al., 2008; cited from earlier work
# [6] = Excretion of NCS‐382 in urine and feces (metabolic cages); type: in vivo; conditions: mouse, pooled urine of 3 mice
# Experimental: To ensure sufficient volumes of urine could be collected in each of the 2 h time intervals (baseline, 0–2, 2–4, 4–6, 6–8 h), three mice were dosed simultaneously and their urine and feces pooled for analysis. The total dose in μg administered to the three animals was therefore used to calculate the percent of the dose excreted in the urine pooled from all three mice. Animals were allowed ad libitum access to food and water of which the intake of each was monitored.
# Samples (3 μL) were injected onto a Kinetex PFP (50 × 2.1 mm, 1.7 μm particle size) UPLC column and eluted with a binary gradient consisting of water with 0.1% formic acid (mobile phase A) and methanol with 0.1% formic acid (mobile phase B). […] Eluent was directed to waste for the initial 0.4 min then to an ABI Sciex 6500 Qtrap tandem mass spectrometer. […] Where necessary, samples were diluted in blank matrices for analysis.
# Pharmacokinetic outcomes were obtained via standard noncompartmental methods using Kinetica (version 5.1, Thermo Fisher Scientific, Waltham, MA). The maximum concentration (C max) was obtained directly from the concentration–time profiles. Area under the concentration–time curve (AUC) from time zero to the last collected time point was determined using the trapezoidal method with linear up/log down interpolation.
# [7] = system: gamma‐butyrolactone‐treated mice; assay: GBL‐mediated response protection by NCS‐382 in the absence and presence of diclofenac; type: in vivo; conditions: mouse
# Experimental: Wild‐type C57/B6 mice (mixed gender, n = 7) were bred in‐house, weaned at day of life (DOL) 21, and randomized to a treatment sequence (Fig. 2). […] Thirty minutes later, mice were given an i.p. injection of GBL (100 mg/kg diluted in PBS) and were placed into a clean round arena (~10 inches in diameter) and were allowed access to food and water. Mice were recorded on a camera operated by Serena acquisition software (recorded for 10 min). At 5 and 10 min following GBL, righting reflex was assessed. These procedures were repeated daily with ~24 h in between sessions. Data file names were coded such that treatments were blinded at the time of video data analysis. During video data analysis, the time of which noticeable loss of motor function or coordination (e.g., “loss of motor function”) was observed, and the time taken for the subject to enter a dissociative state and fall into an unsupported prone position (e.g., “time to loss of motion”) was monitored. Righting reflex was evaluated by placing the mouse in a supine position and the time to return to all four paws was recorded based on the timestamp of the playback video. Data for each treatment group were expressed as the mean and standard deviation, and statistical significance was evaluated using one‐way ANOVA and Tukey post hoc t test (P < 0.05).
# Wild‐type C57/B6 mice (mixed gender, n = 7) were bred in‐house, weaned at day of life (DOL) 21, and randomized to a treatment sequence. […] Thirty minutes later, mice were given an i.p. injection of GBL (100 mg/kg in PBS) and were placed into a clean round arena (~10 inches in diameter) and were allowed access to food and water. Mice were recorded on a camera operated by Sirena acquisition software (recorded for 10 min). At 5 and 10 min following GBL, righting reflex was assessed. These procedures were repeated daily with ~24 h in between sessions. Data files names were coded such that video analysis was blinded at the time of data recording.
# rat [8] = system: rat; parameters: method as in Nava et al., 2001; conditions: dose n.s., i.p., ref Nava et al., 2001; cited from earlier work
# [9] = Metabolite formation kinetics in HLMs; type: in vitro ADME; conditions: human liver microsomes
# Experimental: (§1) Microsomal incubations were conducted as described above with modifications. […] The K m was calculated using nonlinear regression in Graphpad Prism. Due to the lack of authentic standard and relatively short rate of parent disappearance, the maximum formation velocity (V max) could not be determined for either metabolites.
# GHB receptor = target: GHB receptor; parameters: method as in Molnár et al. 2006; conditions: ref Molnár et al. 2006; cited from earlier work
# [10] = Metabolite formation kinetics in MLMs; type: in vitro ADME; conditions: mouse liver microsomes
# Experimental: as §1
# rat [11] = system: rat; parameters: method as in Snead III, 1996; conditions: 100-500 mg/kg i.p., ref Snead III, 1996; cited from earlier work
# rat [12] = system: rat; parameters: method as in Poggioli et al., 1999; conditions: rat, 25, 100, 200 mg/kg p.o.; ref Poggioli et al., 1999; cited from earlier work
# rat [13] = system: rat; parameters: method as in Lamb et al., 2003; conditions: rat, 3.2, 32 mg/kg i.p; ref Lamb et al., 2003; cited from earlier work
# [14] = Metabolite identification in samples from mouse pharmacokinetic studies (candidate metabolites); type: in vivo; conditions: LC‐MS/MS of NCS‐382‐treated mouse samples
# Experimental: Metabolite identification was conducted on samples obtained from pharmacokinetic studies in mice. Analytical conditions and equipment were similar to those described above with some modifications. Samples (10 μL) were injected onto a Kinetex PFP (50 × 2.1 mm, 1.7 μm particle size) UPLC column maintained at 40°C. […] MS experiments consisted of enhanced MS (EMS), neutral loss (NL), precursor ion scan (Prec), and MRM each followed by MS/MS experiments when necessary. Constant conditions such as a source temperature (450°C), signal threshold (500 cps), and CAD gas (“high”) were used, while additional parameters (e.g., collision energy, collision energy spread, mass range, etc.) were obtained by the software during data‐dependent scans. Studies were performed using sera and brain samples, with time points pooled for individual matrices and a reference control derived by pooling the sera or brain homogenates from three vehicle‐treated animals.
# Using the Light Sight software, a comprehensive list of prospective phase I and phase II metabolites were targeted (Table S2). […] A number of structurally feasible metabolites (including oxidation) were initially identified, but could not be confirmed by their mass fragmentation patterns. […] Both peaks were detected in urine samples (Fig. S1B), but not in feces.
# [15] = 120 min, read-out: Km for dehydrogenation
# [16] = saturation not obtained, read-out: Km for glucuronidation
structure (smiles),measurement,setting,value
"O=C(O)/C=C1\CCCc2ccccc2C1O (centres unmarked) [NCS‐382, 6,7,8,9‐tetrahydro‐5‐hydroxy‐5H‐benzo‐cyclohept‐6‐ylideneacetic acid]",AUC(0-t),"[1]; both, in vivo, 300 mg/kg",411 µM·h
same,Brain AUC0–2 h [90% CI],[1]; treatment NCS‐382 300 mg/kg + Diclofenac 25 mg/kg,182 [164–200] ^a nmol/g/tissue*h
same,Brain AUC0–2 h [90% CI],[1]; treatment NCS‐382 300 mg/kg alone,128 [115–141] nmol/g/tissue*h
same,lifespan of SSADHD mice,aldh5a1^−/− mice,significant lifespan extension
same,neurological damage and working-memory impairment induced by low-dose GHB,rat [2],NCS-382 prevents both neurological damage and working- memory impairment induced by low-dose GHB.
same,abuse potential of GHB,mouse,"GHB was shown to have abuse potential, which was blocked by NCS-382."
same,reversal of the anxiolytic effect of GHB,rat [3],"The anxiolytic effect of GHB were reversed by the benzodiazepine receptor antagonist, flumazenil, but not by naloxone or NCS-382."
same,increase in heart rate induced by GHB,rat [4],reversed the ↑ in heart rate
same,pressor response induced by GHB,rat [4],not the pressor response
same,GHB's (300 mg/kg) discriminative stimulus effects,rat [5],"GHB's (300 mg/kg) discriminative stimulus effects were obliterated by the GABAB receptor antagonist, CGP-35348 and slightly attenuated by NCS 382."
same,total dose administered recovered unchanged in the urine over 8 h,[6]; 100 mg/kg,0.1%
same,total dose administered recovered unchanged in the urine over 8 h,[6]; 300 mg/kg,1.1%
same,total dose administered recovered unchanged in the urine over 8 h,[6]; 500 mg/kg,3.3%
same,time to loss of motor function compared to vehicle control,[7]; NCS‐382 300 mg/kg with diclofenac 25 mg/kg i.p. 30 min before GBL 100 mg/kg i.p.,significantly improved
same,time to loss of motor function compared to vehicle control,[7]; given alone i.p. (NCS‐382 300 mg/kg or diclofenac 25 mg/kg) 30 min before GBL 100 mg/kg i.p.,trended toward increasing
same,GHB-induced decrease of hippocampal acetylcholine release,rat [8],"GHB-induced ↓ of hippocampal acetylcholine release is mediated by GABAB receptors, based on ineffective blocking by NCS-382."
same,Km,[9]; [15],12.7 ± 4.8 µM
same,Km,[9]; [16],> 100 µM
same,Ki,GHB receptor,1200 nM
same,Km,[10]; [15],29.5 ± 10 µM
same,Km,[10]; [16],> 100 µM
same,two chemically induced models for absence seizures,rat [11],NCS-382 was protective against two chemically induced models for absence seizures.
same,gastric emptying,rat [12],"dose dependently, ↓ gastric emptying"
same,prokinetic effect of GHB,rat [12],antagonized the prokinetic effect of GHB
same,motor effects of GHB,rat [13],"NCS-382 did not antagonize the motor effects of GHB, consistent with the belief that many of the behavioral actions of exogenously administered GHB result from GHB's actions at sites other than the GHB receptor."
same,Peak Area (%),[14],25%

# — publication PMC5115179 (Pharmacology Research & Perspectives, 2016)
